How the values were obtained:
Assay type in all cases: biochemical
t-PA = test: Stimulation of t-PA by vancomycin-precipitated plasma, plasma system
Procedure: 25 μl P-Pool were incubated with 25 μl 0-50 mM vancomycin in PBS and 50 μl 1000 IU/ml t-PA in PBS, 0.1% Triton X 100® and 25 μl 0 mM or 15 mM chloramine-T® for 30 min (RT). Then 25 μl 2.7 mM Vai-Leu-Lys-pNA, 1.7 M KCl were added and the resulting plasmin activity was determined by measuring linear absorbance increase/min RT in a microtiterplate reader.

[1] = tested on: β2 fraction (fibrinogen) of plasma; test: Electrophoresis of plasma that had been incubated with vancomycin
Procedure: 950 μl P-Pool were incubated with 50 μl 0-200 mM (0-10 mM final conc.) vancomycin for 5 min (RT). Then electrophoreses of the samples and of the solubilized precipitate of 2.10. were performed and the total protein concentrations in the treated samples were determined.

plasmatic fibrinogen = target: T1, plasmatic fibrinogen (Homo sapiens, UniProt P02671+P02675+P02679)
T1 construct: pooled patient plasma (P-Pool, n=32 single plasmas); from tissue; host or cells: pooled citrated patient plasma (P-Pool, Fbgen-Pool-Plasma)
T1 sequence (P02671 20-644 isoform P02671-2 limits assumed): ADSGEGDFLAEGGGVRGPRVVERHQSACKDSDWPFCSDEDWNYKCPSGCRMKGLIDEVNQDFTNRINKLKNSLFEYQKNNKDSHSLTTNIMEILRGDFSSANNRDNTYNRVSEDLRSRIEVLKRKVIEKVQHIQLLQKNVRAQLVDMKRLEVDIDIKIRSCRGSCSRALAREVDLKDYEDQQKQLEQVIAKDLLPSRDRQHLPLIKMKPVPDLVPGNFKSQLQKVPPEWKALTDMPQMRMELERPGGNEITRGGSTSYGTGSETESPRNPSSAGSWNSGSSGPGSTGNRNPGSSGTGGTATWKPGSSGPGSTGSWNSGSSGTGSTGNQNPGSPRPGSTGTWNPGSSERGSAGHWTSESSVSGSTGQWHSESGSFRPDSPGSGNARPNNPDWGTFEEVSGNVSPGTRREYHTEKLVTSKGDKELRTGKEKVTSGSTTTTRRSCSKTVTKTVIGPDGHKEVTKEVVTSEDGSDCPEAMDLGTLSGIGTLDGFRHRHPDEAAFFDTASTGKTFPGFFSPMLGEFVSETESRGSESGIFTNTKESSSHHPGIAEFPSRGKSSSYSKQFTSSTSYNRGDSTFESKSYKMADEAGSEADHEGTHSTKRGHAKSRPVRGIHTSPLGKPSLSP
T1 sequence (P02675 31-491): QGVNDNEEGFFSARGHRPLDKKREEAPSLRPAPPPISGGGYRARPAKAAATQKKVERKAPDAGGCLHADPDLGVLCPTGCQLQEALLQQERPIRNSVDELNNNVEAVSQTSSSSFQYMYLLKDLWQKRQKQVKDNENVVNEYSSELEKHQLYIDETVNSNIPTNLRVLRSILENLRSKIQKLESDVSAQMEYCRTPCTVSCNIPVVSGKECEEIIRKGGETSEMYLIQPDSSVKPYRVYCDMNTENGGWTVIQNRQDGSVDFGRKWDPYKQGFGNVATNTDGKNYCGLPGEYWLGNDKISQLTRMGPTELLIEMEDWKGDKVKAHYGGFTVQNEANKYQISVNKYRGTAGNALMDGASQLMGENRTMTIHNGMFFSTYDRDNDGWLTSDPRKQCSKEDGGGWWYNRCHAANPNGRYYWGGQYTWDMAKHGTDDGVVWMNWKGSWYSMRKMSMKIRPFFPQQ
T1 sequence (P02679 27-437 isoform P02679-2 limits assumed): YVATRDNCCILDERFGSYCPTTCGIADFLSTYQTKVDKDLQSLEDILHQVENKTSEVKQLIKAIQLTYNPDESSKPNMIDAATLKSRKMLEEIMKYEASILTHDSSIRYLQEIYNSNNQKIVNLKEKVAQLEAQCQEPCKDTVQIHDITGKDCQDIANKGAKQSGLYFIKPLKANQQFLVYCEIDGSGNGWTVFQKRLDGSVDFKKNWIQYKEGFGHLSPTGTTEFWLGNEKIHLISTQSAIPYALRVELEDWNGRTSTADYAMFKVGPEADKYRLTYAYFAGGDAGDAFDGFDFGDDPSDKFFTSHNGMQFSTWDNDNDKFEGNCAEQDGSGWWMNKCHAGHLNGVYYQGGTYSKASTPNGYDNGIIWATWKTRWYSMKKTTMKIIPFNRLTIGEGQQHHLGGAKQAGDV
Procedure: 25 μl of 143% (4.0 g/l) P-Pool were incubated with 25 μl 0-50 mM vancomycin in PBS, 50 μl PBS, 0.1% Triton X 100® and 50 μl 850 mM KCl in H2O for 1 min (RT). The turbidity at 405 nm was determined. […] For pH-studies 5 ml P-Pool were mixed with 5 ml PBS and 0-1750 μl 1 M NaHCO3, pH 8.6.
5 ml P-Pool were incubated with 5 ml 4.4 mM vancomycin in PBS for 3 min (RT). Then the reaction mixture was centrifuged at 2500 g (4000 rpm) for 10 min. The supernatant was separated from the precipitate. The precipitate was not washed or was washed 3× with dest. H2O (resuspension, centrifugation, resuspension, . . . ). The unwashed precipitate was solubilized by addition of 500 μl 1 M NaHCO3, pH 8.6, and 4500 μl PBS; the washed precipitate was solubilized by addition of 300 μl 1 M NaHCO3 to 1700 μl in dest. H2O resuspended precipitate. 3 preparations of washed precipitate were also dried at room temperature and the dried precipitates were weighed. The solubilized precipitate and the supernatant were functionally analyzed for fibrinogen. 100 μl 1 M NaHCO3, pH 8.6 were added to 400 μl of the solubilized unwashed precipitate and this solution, the solubilized washed precipitate and the supernatant were analyzed for total protein, albumin concentration, and pseudocholinesterase activity in a Hitachi 917 analyzer, Roche, Basel, Switzerland and for vancomycin in an Integra 800 (Fluorescence Polarisation Immuno Assay); electrophoreses were performed in an agarose gel-based Hydrasis LC-Electrophoresis system (Sebia, Fulda, Germany). For control, 1 ml pooled serum was incubated with 1 ml 4.4 mM vancomycin in PBS, and the vancomycin conc. was determined.

[2] = after 1+1 incubation with 4.4 mM vancomycin in PBS

**Q.** With `CN[C@H](CC(C)C)C(=O)N[C@H]1C(=O)N[C@@H](CC(N)=O)C(=O)N[C@H]2C(=O)N[C@H]3C(=O)N[C@H](C(=O)N[C@H](C(=O)O)c4cc(O)cc(O)c4-c4cc3ccc4O)[C@H](O)c3ccc(c(Cl)c3)Oc3cc2cc(c3O[C@@H]2O[C@H](CO)[C@@H](O)[C@H](O)[C@H]2O[C@H]2C[C@](C)(N)[C@H](O)[C@H](C)O2)Oc2ccc(cc2Cl)[C@H]1O` [vancomycin] as the molecule, how does the “stimulation of t-PA” value (t-PA; 1 part plasma with 1 part 1.5-5 mM vancomycin, oxidation with 1 part 15 mM chloramine-T) read?
**A.** up to 20 fold

**Q.** And the “increase of t-PA activity” value (t-PA; without oxidation, 2 mM vancomycin, final incubation 158 min (RT))?
**A.** 2.5 fold

**Q.** And the β2 fraction ([1]; 0.29 mM vancomycin)?
**A.** 10.6%

**Q.** And the β2 fraction ([1]; 0.44 mM vancomycin)?
**A.** 10.4%

**Q.** And the β2 fraction ([1]; 0.66 mM vancomycin)?
**A.** 8.0%

**Q.** And the β2 fraction ([1]; 0.99 mM vancomycin)?
**A.** 6.4%

**Q.** And the β2 fraction ([1]; 1.48 mM vancomycin)?
**A.** 5.2%

**Q.** And the β2 fraction ([1]; 2.22 mM vancomycin)?
**A.** 5.5%

**Q.** And the β2 fraction ([1]; 5 mM vancomycin)?
**A.** 0%

**Q.** What about the β2 fraction ([1]; 10 mM vancomycin) of the same molecule?
**A.** 0%

**Q.** What about the fibrinogen precipitated (plasmatic fibrinogen; 4.4 mM vancomycin) of the same molecule?
**A.** 84%

**Q.** What about the “fibrinogen remained in the plasma” value (plasmatic fibrinogen; 4.4 mM vancomycin) of the same molecule?
**A.** 16%

**Q.** What about the “fibrinogen remained of initial 4.0 g/l” value (plasmatic fibrinogen; 4.4 mM vancomycin, corrected for 1+1 dilution) of the same molecule?
**A.** 0.64 g/L

**Q.** What about the “fibrinogen conc. in the supernatant” value (plasmatic fibrinogen; 1 part plasma and 1 part 4.4 mM vancomycin in PBS) of the same molecule?
**A.** 0.32 g/L

**Q.** And the “increase of turbidity of citrated plasma” value (plasmatic fibrinogen; 25 μl 0-50 mM vancomycin, 25 μl P-Pool, 1 min RT)?
**A.** up to 20 fold

**Q.** What about the “vancomycin found in pooled serum” value (plasmatic fibrinogen; [2]) of the same molecule?
**A.** 2.1 mM

**Q.** And the “vancomycin found in supernatant of pooled plasma” value (plasmatic fibrinogen; [2])?
**A.** 0.17 mM

**Q.** What about the “vancomycin attached to 5 μM precipitating fibrinogen” value (plasmatic fibrinogen; of 2.2 mM vancomycin in the reaction mixture) of the same molecule?
**A.** 80 µM

**Q.** And the vancomycin molecules/fibrinogen molecule (plasmatic fibrinogen; washed precipitate)?
**A.** 16
